Data published in patent publication US20090181986A1, “SUBSTITUTED HETEROCYCLIC COMPOUNDS” (priority 2007, published 2009).

Target: hERG potassium channel (Homo sapiens, UniProt Q12809)
Assay: hERG screening assay (PatchXpress patch clamp, CHO cells)

hERG potassium channel, sequence (Q12809 whole entry): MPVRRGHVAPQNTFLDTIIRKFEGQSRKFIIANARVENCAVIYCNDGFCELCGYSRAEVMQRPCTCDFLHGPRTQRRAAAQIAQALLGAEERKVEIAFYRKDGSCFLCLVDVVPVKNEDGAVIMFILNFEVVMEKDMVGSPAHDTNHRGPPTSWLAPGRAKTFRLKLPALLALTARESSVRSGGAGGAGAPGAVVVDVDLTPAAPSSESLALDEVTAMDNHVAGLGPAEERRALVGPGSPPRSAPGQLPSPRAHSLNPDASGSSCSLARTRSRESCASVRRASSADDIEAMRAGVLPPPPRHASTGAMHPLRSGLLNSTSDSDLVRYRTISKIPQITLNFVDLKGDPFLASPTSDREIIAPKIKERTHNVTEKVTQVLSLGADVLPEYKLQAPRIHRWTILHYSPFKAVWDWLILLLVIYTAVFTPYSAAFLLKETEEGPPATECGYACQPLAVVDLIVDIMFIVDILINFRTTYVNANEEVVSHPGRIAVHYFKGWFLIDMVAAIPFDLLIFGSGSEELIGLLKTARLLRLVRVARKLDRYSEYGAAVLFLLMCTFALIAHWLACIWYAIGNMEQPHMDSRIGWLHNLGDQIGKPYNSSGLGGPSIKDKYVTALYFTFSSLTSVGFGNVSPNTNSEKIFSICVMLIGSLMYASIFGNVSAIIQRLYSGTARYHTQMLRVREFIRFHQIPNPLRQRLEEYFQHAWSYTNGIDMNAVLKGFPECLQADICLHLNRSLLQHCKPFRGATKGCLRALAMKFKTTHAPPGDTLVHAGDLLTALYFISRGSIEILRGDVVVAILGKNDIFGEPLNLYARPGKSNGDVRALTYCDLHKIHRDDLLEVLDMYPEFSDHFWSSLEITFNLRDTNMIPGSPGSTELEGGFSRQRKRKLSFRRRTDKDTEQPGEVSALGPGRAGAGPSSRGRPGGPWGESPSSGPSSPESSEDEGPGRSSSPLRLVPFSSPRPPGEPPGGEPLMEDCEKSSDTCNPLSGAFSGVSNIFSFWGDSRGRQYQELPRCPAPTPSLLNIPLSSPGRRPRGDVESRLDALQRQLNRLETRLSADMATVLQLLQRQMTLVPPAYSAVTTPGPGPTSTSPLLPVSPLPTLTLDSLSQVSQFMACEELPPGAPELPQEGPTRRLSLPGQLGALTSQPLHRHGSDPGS

Compound: CC1=C(C(=O)OC(c2ccccc2)C2CC2)C(c2cccc3ccccc23)n2nnnc2N1 (centres unmarked) [PT-002, cyclopropyl(phenyl)methyl 5-methyl-7-(naphthalen-1-yl)-4,7-dihydrotetrazolo[1,5-a]pyrimidine-6-carboxylate]
- hERG Patch Clamp hERG % blk (1 μM test cmpd): 11.5%
- hERG Patch Clamp hERG % blk (10 μM test cmpd): 28%

Compound: CCOC(=O)C1=C(CC)Nc2nnnn2C1c1cccc2ccccc12 (centres unmarked) [PT-010, ethyl 5-ethyl-7-(naphthalen-1-yl)-4,7-dihydrotetrazolo[1,5-a]pyrimidine-6-carboxylate]
- hERG Patch Clamp hERG % blk (1 μM test cmpd): 12.5%
- hERG Patch Clamp hERG % blk (10 μM test cmpd): 30%

Compound: CCOC(=O)C1=C(C)Nc2nnnn2C1c1csc2ccccc12 (centres unmarked) [PT-017, ethyl 7-(benzo[b]thiophen-3-yl)-5-methyl-4,7-dihydrotetrazolo[1,5-a]pyrimidine-6-carboxylate]
- hERG Patch Clamp hERG % blk (1 μM test cmpd): 10%
- hERG Patch Clamp hERG % blk (10 μM test cmpd): 23.5%

Compound: CCOC(=O)C1=C(C)Nc2nnnn2C1c1sc2ccccc2c1C (centres unmarked) [PT-018, ethyl 5-methyl-7-(3-methylbenzo[b]thiophen-2-yl)-4,7-dihydrotetrazolo[1,5-a]pyrimidine-6-carboxylate]
- hERG Patch Clamp hERG % blk (1 μM test cmpd): 14.5%
- hERG Patch Clamp hERG % blk (10 μM test cmpd): 36.5%

Compound: CCOC(=O)C1=C(C)Nc2nnnn2C1c1cc2ccccc2o1 (centres unmarked) [PT-019, ethyl 7-(benzofuran-2-yl)-5-methyl-4,7-dihydrotetrazolo[1,5-a]pyrimidine-6-carboxylate]
- hERG Patch Clamp hERG % blk (1 μM test cmpd): 10%
- hERG Patch Clamp hERG % blk (10 μM test cmpd): 26%

Compound: CC1=C(C(=O)OC(C)C)C(c2cccc3ccccc23)n2nnnc2N1 (centres unmarked) [PT-021, isopropyl 5-methyl-7-(naphthalen-1-yl)-4,7-dihydrotetrazolo[1,5-a]pyrimidine-6-carboxylate]
- hERG Patch Clamp hERG % blk (1 μM test cmpd): 13%
- hERG Patch Clamp hERG % blk (10 μM test cmpd): 43.5%

Compound: CC1=C(C(=O)OCc2ccccc2)C(c2ccccc2-c2ccccc2)n2nnnc2N1 (centres unmarked) [PT-025, benzyl 7-(biphenyl-2-yl)-5-methyl-4,7-dihydrotetrazolo[1,5-a]pyrimidine-6-carboxylate]
- hERG Patch Clamp hERG % blk (1 μM test cmpd): 11%
- hERG Patch Clamp hERG % blk (10 μM test cmpd): 53%

Compound: COc1ccc2ccccc2c1C1C(C(=O)OCc2ccccc2)=C(C)Nc2nnnn21 (centres unmarked) [PT-030, benzyl 7-(2-methoxynaphthalen-1-yl)-5-methyl-4,7-dihydrotetrazolo[1,5-a]pyrimidine-6-carboxylate]
- hERG Patch Clamp hERG % blk (1 μM test cmpd): 10.5%
- hERG Patch Clamp hERG % blk (10 μM test cmpd): 34.5%

Compound: CC1=C(C(=O)OCc2ccccc2)C(c2ccc(N(C)C)c3ccccc23)n2nnnc2N1 (centres unmarked) [PT-032, benzyl 7-(4-(dimethylamino)naphthalen-1-yl)-5-methyl-4,7-dihydrotetrazolo[1,5-a]pyrimidine-6-carboxylate]
- hERG Patch Clamp hERG % blk (1 μM test cmpd): 19%
- hERG Patch Clamp hERG % blk (10 μM test cmpd): 50.5%

Compound: CC1=C(C(=O)OCc2ccccc2)C(c2cccc3c2OCO3)n2nnnc2N1 (centres unmarked) [PT-034, benzyl 7-(benzo[d][1,3]dioxol-4-yl)-5-methyl-4,7-dihydrotetrazolo[1,5-a]pyrimidine-6-carboxylate]
- hERG Patch Clamp hERG % blk (1 μM test cmpd): 14.5%
- hERG Patch Clamp hERG % blk (10 μM test cmpd): 56%

Compound: CC1=C(C(=O)O[C@@H](C)c2ccccc2)[C@@H](c2cccc3ccccc23)n2nnnc2N1 [PT-050, (R)-((S)-1-phenylethyl) 5-methyl-7-(naphthalen-1-yl)-4,7-dihydrotetrazolo[1,5-a]pyrimidine-6-carboxylate]
- hERG Patch Clamp hERG % blk (1 μM test cmpd): 10%
- hERG Patch Clamp hERG % blk (10 μM test cmpd): 53.5%

Compound: COc1ccc(COC(=O)C2=C(C)Nc3nnnn3C2c2cccc3ccccc23)cc1OC (centres unmarked) [PT-061, 3,4-dimethoxybenzyl 5-methyl-7-(naphthalen-1-yl)-4,7-dihydrotetrazolo[1,5-a]pyrimidine-6-carboxylate]
- hERG Patch Clamp hERG % blk (1 μM test cmpd): 24%
- hERG Patch Clamp hERG % blk (10 μM test cmpd): 46.5%

Compound: CC1=C(C(=O)OC(C)Cc2ccccc2)C(c2cccc3ccccc23)n2nnnc2N1 (centres unmarked) [PT-064, 1-phenylpropan-2-yl 5-methyl-7-(naphthalen-1-yl)-4,7-dihydrotetrazolo[1,5-a]pyrimidine-6-carboxylate]
- hERG Patch Clamp hERG % blk (1 μM test cmpd): 20.5%
- hERG Patch Clamp hERG % blk (10 μM test cmpd): 37.5%

Compound: CC1=C(C(=O)NCc2ccccc2)C(c2ccc3ccccc3c2)n2nnnc2N1 (centres unmarked) [PT-068, N-benzyl-5-methyl-7-(naphthalen-2-yl)-4,7-dihydrotetrazolo[1,5-a]pyrimidine-6-carboxamide]
- hERG Patch Clamp hERG % blk (1 μM test cmpd): 14%
- hERG Patch Clamp hERG % blk (10 μM test cmpd): 22.5%

Compound: CCOC(=O)C1=C(C)Nc2[nH]nc(C)c2C1c1cccc2ccccc12 (centres unmarked) [PT-074, ethyl 3,6-dimethyl-4-(naphthalen-1-yl)-4,7-dihydro-1H-pyrazolo[3,4-b]pyridine-5-carboxylate]
- hERG Patch Clamp hERG % blk (1 μM test cmpd): 14%
- hERG Patch Clamp hERG % blk (10 μM test cmpd): 43%

Compound: COC(=O)c1ccc(-c2n[nH]c3c2C(c2cccc4ccccc24)C2=C(COC2=O)N3)cc1 (centres unmarked) [PT-085, methyl 4-(4-(naphthalen-1-yl)-5-oxo-4,5,7,8-tetrahydro-1H-furo[3,4-b]pyrazolo[4,3-e]pyridin-3-yl)benzoate]
- hERG Patch Clamp hERG % blk (1 μM test cmpd): 34%
- hERG Patch Clamp hERG % blk (10 μM test cmpd): 44.5%

Compound: CCOC(=O)C1=C(C)Nc2nccn2C1c1ccc2ccccc2c1 (centres unmarked) [PT-086, ethyl 7-methyl-5-(naphthalen-2-yl)-5,8-dihydroimidazo[1,2-a]pyrimidine-6-carboxylate]
- hERG Patch Clamp hERG % blk (1 μM test cmpd): 13.5%
- hERG Patch Clamp hERG % blk (10 μM test cmpd): 57.5%

Compound: CCCC1=C(C(=O)OCC)C(c2ccc(C(=O)O)cc2)C2=C(CC(C)(C)CC2=O)N1 (centres unmarked) [PT-133, 4-(3-(ethoxycarbonyl)-7,7-dimethyl-5-oxo-2-propyl-1,4,5,6,7,8-hexahydroquinolin-4-yl)benzoic acid]
- hERG Patch Clamp hERG % blk (1 μM test cmpd): 10%
- hERG Patch Clamp hERG % blk (10 μM test cmpd): 12%

Compound: CCOC(=O)C1=C(C)NC2=C(C(=O)CCC2)C1c1cccc2ncccc12 (centres unmarked) [PT-140, ethyl 2-methyl-5-oxo-1,4,5,6,7,8-hexahydro-4,5′-biquinoline-3-carboxylate]
- hERG Patch Clamp hERG % blk (1 μM test cmpd): 13.5%
- hERG Patch Clamp hERG % blk (10 μM test cmpd): 34.5%

Compound: CCOC(=O)C1=C(C)NC2=C(C(=O)CCC2)C1c1ccnc2ccccc12 (centres unmarked) [PT-190, ethyl 2-methyl-5-oxo-1,4,5,6,7,8-hexahydro-4,4′-biquinoline-3-carboxylate]
- hERG Patch Clamp hERG % blk (1 μM test cmpd): 10.5%
- hERG Patch Clamp hERG % blk (10 μM test cmpd): 32%

Compound: CC1=C(C(=O)OCc2ccccc2)[C@@H](c2ccccc2-c2ccc(Cl)s2)n2nnnc2N1 [PT-237, (R)-benzyl 7-(2-(5-chlorothiophen-2-yl)phenyl)-5-methyl-4,7-dihydrotetrazolo[1,5-a]pyrimidine-6-carboxylate]
- hERG Patch Clamp hERG % blk (1 μM test cmpd): 11.5%
- hERG Patch Clamp hERG % blk (10 μM test cmpd): 22.5%

Compound: CC1=C(C(=O)OCc2ccccc2)C(c2ccccc2-c2ccc(C(=O)O)cc2)C2=C(CCCC2=O)N1 (centres unmarked) [PT-249, 2′-(3-(benzyloxycarbonyl)-2-methyl-5-oxo-1,4,5,6,7,8-hexahydroquinolin-4-yl)biphenyl-4-carboxylic acid]
- hERG Patch Clamp hERG % blk (1 μM test cmpd): 11.5%
- hERG Patch Clamp hERG % blk (10 μM test cmpd): 15.5%

Compound: CC1=C(c2nnc(CCc3ccccc3)o2)C(c2cccc3ccccc23)n2nnnc2N1 (centres unmarked) [PT-252, 2-(5-methyl-7-(naphthalen-1-yl)-4,7-dihydrotetrazolo[1,5-a]pyrimidin-6-yl)-5-phenethyl-1,3,4-oxadiazole]
- hERG Patch Clamp hERG % blk (1 μM test cmpd): 10.5%
- hERG Patch Clamp hERG % blk (10 μM test cmpd): 78%

Compound: CC1=C(C(=O)OCc2ccccc2)C(c2ccccc2-c2ccc(C(=O)O)cc2)n2nnnc2N1 (centres unmarked) [PT-254, 2′-(6-(benzyloxycarbonyl)-5-methyl-4,7-dihydrotetrazolo[1,5-a]pyrimidin-7-yl)biphenyl-4-carboxylic acid]
- hERG Patch Clamp hERG % blk (1 μM test cmpd): 15%
- hERG Patch Clamp hERG % blk (10 μM test cmpd): 20%

Compound: CC1=C(C(=O)OCc2ccc(Cn3cccn3)cc2)C(c2cccc3ccccc23)n2nnnc2N1 (centres unmarked) [PT-279, 4-((1H-pyrazol-1-yl)methyl)benzyl 5-methyl-7-(naphthalen-1-yl)-4,7-dihydrotetrazolo[1,5-a]pyrimidine-6-carboxylate]
- hERG Patch Clamp hERG % blk (1 μM test cmpd): 12.5%
- hERG Patch Clamp hERG % blk (10 μM test cmpd): 45%

Compound: CC1=C(C(=O)OCc2ccc(Cn3cccn3)cc2)C(c2cccs2)n2nnnc2N1 (centres unmarked) [PT-280, 4-((1H-pyrazol-1-yl)methyl)benzyl 5-methyl-7-(thiophen-2-yl)-4,7-dihydrotetrazolo[1,5-a]pyrimidine-6-carboxylate]
- hERG Patch Clamp hERG % blk (1 μM test cmpd): 11.5%
- hERG Patch Clamp hERG % blk (10 μM test cmpd): 48%

Compound: CC1=C(C(=O)OCc2ccccc2)C(c2c(-c3ccc(C(=O)O)cc3)sc3ccccc23)n2nnnc2N1 (centres unmarked) [PT-294, 4-(3-(6-(benzyloxycarbonyl)-5-methyl-4,7-dihydrotetrazolo[1,5-a]pyrimidin-7-yl)benzo[b]thiophen-2-yl)benzoic acid]
- hERG Patch Clamp hERG % blk (1 μM test cmpd): 12.5%
- hERG Patch Clamp hERG % blk (10 μM test cmpd): 15.5%

Compound: COc1cc(Cl)ccc1COC(=O)C1=C(C)NC2=C(C(=O)CCC2)C1c1c(Cl)cccc1Cl (centres unmarked) [PT-303, 4-chloro-2-methoxybenzyl 4-(2,6-dichlorophenyl)-2-methyl-5-oxo-1,4,5,6,7,8-hexahydroquinoline-3-carboxylate]
- hERG Patch Clamp hERG % blk (1 μM test cmpd): 12%
- hERG Patch Clamp hERG % blk (10 μM test cmpd): 30.5%

Compound: COc1cc(Cl)ccc1COC(=O)C1=C(C)Nc2nnnn2C1c1c(Cl)cccc1Cl (centres unmarked) [PT-306, 4-chloro-2-methoxybenzyl 7-(2,6-dichlorophenyl)-5-methyl-4,7-dihydrotetrazolo[1,5-a]pyrimidine-6-carboxylate]
- hERG Patch Clamp hERG % blk (1 μM test cmpd): 10%
- hERG Patch Clamp hERG % blk (10 μM test cmpd): 48.5%

Compound: COc1cc(Cl)ccc1COC(=O)C1=C(C)Nc2nnnn2C1c1c(C)cccc1C (centres unmarked) [PT-307, 4-chloro-2-methoxybenzyl 7-(2,6-dimethylphenyl)-5-methyl-4,7-dihydrotetrazolo[1,5-a]pyrimidine-6-carboxylate]
- hERG Patch Clamp hERG % blk (1 μM test cmpd): 10%
- hERG Patch Clamp hERG % blk (10 μM test cmpd): 62.5%

Compound: C=CCOC(=O)C1=C(C)Nc2nnnn2C1c1cccc2ccccc12 (centres unmarked) [PT-319, allyl 5-methyl-7-(naphthalen-1-yl)-4,7-dihydrotetrazolo[1,5-a]pyrimidine-6-carboxylate]
- hERG Patch Clamp hERG % blk (1 μM test cmpd): 10%
- hERG Patch Clamp hERG % blk (10 μM test cmpd): 41%
